From patent publication US20190271885A1, “OPTICAL FILM AND METHOD FOR PRODUCING THE SAME, POLARIZING PLATE, AND IMAGE DISPLAY DEVICE” (FUJIFILM Corporation, priority 2016, published 2019) come the findings set out here.

A short description of the data set: Evaluation of wet heat resistance of optical film (change of in-plane retardation Re). In kind it is physicochemical. To be noted: HB(C6F5)4 used instead of the additive B-1 of Example 1. The method, then:
The optical film manufactured in each of Examples and Comparative Examples was left to stand in an environment at a temperature of 65° C. and a humidity of 90% for 500 hours, and the in-plane retardation Re of the optical film before being left to stand in a wet heat environment (initial Re1) and the in-plane retardation Re of the optical film after being left to stand in a wet heat environment (Re1 after standing) were compared to each other to calculate a Re change rate 1.
Furthermore, the Re change rate 1 is calculated by the following equation.
Re change rate 1(%)={(Initial Re1−Re1 after standing)/Initial Re1}×100
Furthermore, a comparative optical film was manufactured without use of an additive of each of Examples and Comparative Examples, and according to the same procedure as above, the in-plane retardation Re of the comparative optical film before being left to stand in a wet heat environment (initial Re2) and the in-plane retardation Re of the comparative optical film after being left to stand in a wet heat environment (Re2 after standing) were compared to each other to calculate a Re change rate 2.
Furthermore, the Re change rate 2 is calculated by the following equation. […]
A difference between the Re change rate 2 and the Re change rate 1 (Re change rate 2-Re change rate 1) was evaluated according to the following standard. […]

As to `Fc1c(F)c(F)c([B-](c2c(F)c(F)c(F)c(F)c2F)(c2c(F)c(F)c(F)c(F)c2F)c2c(F)c(F)c(F)c(F)c2F)c(F)c1F.[H+]` [HB(C6F5)4], the “Wet heat resistance (in words)” value was “the same extent of effects as in Example 1”.
